From paper PMC7044277 (Nature Communications, 2020)
Several values for one entry are separate records, joined by “and”; a condition that tells them apart may be missing. Identical values can stand only once.

Key:
Assay type in all cases: cell-based
320 non-olfactory GPCRs [1] = target: 320 non-olfactory GPCRs (Homo sapiens, UniProt P21462)
320 non-olfactory GPCRs [2] = target: T1, 320 non-olfactory GPCRs (Homo sapiens, UniProt Q9UBS5)
T1 construct: expressed in transfected cells; host or cells: HTLA cells
T1 sequence (Q9UBS5 20-961): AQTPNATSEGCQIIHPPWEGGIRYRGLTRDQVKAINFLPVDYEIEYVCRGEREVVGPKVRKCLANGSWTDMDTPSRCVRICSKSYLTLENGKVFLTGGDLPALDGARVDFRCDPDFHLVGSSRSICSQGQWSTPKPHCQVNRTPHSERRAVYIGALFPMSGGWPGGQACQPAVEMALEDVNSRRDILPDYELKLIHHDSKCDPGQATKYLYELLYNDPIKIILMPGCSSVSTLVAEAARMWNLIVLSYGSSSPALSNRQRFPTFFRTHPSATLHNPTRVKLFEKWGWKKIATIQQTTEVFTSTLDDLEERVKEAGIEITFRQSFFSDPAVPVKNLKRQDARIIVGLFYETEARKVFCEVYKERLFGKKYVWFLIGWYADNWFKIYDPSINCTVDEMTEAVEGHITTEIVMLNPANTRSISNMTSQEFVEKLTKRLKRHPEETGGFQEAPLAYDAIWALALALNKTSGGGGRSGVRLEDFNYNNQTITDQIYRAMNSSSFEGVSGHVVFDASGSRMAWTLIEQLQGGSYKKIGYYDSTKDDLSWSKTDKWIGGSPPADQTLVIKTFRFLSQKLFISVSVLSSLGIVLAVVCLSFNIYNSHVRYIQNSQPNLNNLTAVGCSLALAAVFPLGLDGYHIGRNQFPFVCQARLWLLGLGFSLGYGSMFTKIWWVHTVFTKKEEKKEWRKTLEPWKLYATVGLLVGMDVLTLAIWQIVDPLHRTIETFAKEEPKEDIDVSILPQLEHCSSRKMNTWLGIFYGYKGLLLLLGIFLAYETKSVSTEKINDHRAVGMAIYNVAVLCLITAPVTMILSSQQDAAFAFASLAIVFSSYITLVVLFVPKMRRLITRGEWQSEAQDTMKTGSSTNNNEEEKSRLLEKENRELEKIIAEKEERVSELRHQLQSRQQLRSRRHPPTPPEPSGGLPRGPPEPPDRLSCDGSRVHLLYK

320 non-olfactory GPCRs [3] = target: 320 non-olfactory GPCRs (Homo sapiens, UniProt P41146); details: receptor OPRL1; replicate values, Fig_4g
Chain of 320 non-olfactory GPCRs (Homo sapiens, UniProt P41146) (P41146 whole entry): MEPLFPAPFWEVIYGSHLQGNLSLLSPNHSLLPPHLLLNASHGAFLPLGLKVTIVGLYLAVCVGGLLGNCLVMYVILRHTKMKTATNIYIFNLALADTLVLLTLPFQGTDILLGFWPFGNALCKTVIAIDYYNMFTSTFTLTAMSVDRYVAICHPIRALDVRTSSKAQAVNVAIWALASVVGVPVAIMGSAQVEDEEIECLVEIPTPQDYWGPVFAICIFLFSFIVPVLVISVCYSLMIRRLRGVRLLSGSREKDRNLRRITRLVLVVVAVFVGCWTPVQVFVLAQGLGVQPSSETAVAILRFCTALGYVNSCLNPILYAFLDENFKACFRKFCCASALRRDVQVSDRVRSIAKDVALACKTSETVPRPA

320 non-olfactory GPCRs [4] = target: 320 non-olfactory GPCRs (Homo sapiens, UniProt Q16581)
Chain of 320 non-olfactory GPCRs (Homo sapiens, UniProt Q16581) (Q16581 whole entry): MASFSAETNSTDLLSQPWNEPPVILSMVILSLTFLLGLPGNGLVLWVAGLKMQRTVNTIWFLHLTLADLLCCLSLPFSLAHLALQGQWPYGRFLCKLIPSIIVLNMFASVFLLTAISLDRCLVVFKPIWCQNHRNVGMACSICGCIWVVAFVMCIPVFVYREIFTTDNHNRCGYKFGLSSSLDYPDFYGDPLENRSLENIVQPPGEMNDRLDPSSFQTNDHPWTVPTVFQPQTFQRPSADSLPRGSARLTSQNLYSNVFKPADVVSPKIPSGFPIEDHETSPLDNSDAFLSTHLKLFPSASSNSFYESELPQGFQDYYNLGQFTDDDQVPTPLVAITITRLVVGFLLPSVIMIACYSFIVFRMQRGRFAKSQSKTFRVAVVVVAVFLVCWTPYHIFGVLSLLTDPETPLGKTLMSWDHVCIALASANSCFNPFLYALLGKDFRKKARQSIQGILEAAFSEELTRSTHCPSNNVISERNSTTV
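Wherever Fold of Basal is given: compound tested at 1 µM final concentration.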
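Wherever GPCRome agonism screen response is given: fold over basal response of each receptor without drug.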

Chain of 320 non-olfactory GPCRs (Homo sapiens, UniProt P21462) (P21462 whole entry): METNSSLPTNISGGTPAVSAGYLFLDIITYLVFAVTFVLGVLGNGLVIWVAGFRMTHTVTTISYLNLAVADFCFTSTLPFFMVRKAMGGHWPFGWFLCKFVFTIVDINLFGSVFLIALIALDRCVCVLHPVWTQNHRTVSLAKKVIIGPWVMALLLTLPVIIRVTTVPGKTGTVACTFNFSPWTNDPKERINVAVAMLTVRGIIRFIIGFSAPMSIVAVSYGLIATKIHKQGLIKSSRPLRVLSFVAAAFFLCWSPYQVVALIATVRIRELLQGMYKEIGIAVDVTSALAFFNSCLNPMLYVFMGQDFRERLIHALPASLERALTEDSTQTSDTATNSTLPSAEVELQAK

## CCOc1cccc2cc(C(C)NCC3(O)CCCCC3)oc12 (stereo not shown) [O4LE6]
320 non-olfactory GPCRs [1]
  Fold of Basal: 0.6589 and 0.3791 and 0.4925 and 0.3481
320 non-olfactory GPCRs [2]
  Fold of Basal: 0.7465 and 0.7299 and 1.058 and 0.6886
320 non-olfactory GPCRs [3]
  GPCRome agonism screen response: 0.6174 and 0.5517 and 0.7699 and 0.8115
320 non-olfactory GPCRs [4]
  Fold of Basal: 1.165 and 1.05 and 0.9669 and 0.8841
